The values below come from patent publication US20060040957A1, “BICYCLIC PYRIMIDINE MATRIX METALLOPROTEINASE INHIBITORS” (priority 2001, published 2006).

Where a name gives a salt, the structure may show the parent alone.

One experiment has as its target MMP-13CD (catalytic domain of collagenase 3) (Homo sapiens, UniProt P45452). The experiment in a line: Thiopeptolide substrate hydrolysis assay, MMP-13CD. The following applies: IC50 (μM) Versus Certain MMPs: MMP-13 CD, thiopeptolide substrate, HEPES pH 7.0, 22° C. In kind it is biochemical. The source says: Thiopeptolide substrates show virtually no decomposition or hydrolysis at or below neutral pH in the absence of a matrix metalloproteinase enzyme.
Broadly, the IC50 is the point on the concentration scale where inhibition reaches its midpoint. Turning to `Cc1c(=O)n(Cc2ccccc2)c(=O)n2cc(C(=O)NCc3ccccn3)sc12` [Example 47, 6-Benzyl-8-methyl-5,7-dioxo-6,7-dihydro-5H-thiazolo[3,2-c]pyrimidine-2-carboxylic acid(pyridin-2-ylmethyl)-amide hydrochloride], the half-maximal inhibitory concentration (IC50) was found to be 9.9 µM.
`Cc1c(=O)n(Cc2ccccc2)c(=O)n2cc(C(=O)NCc3cn4ccsc4n3)sc12` [Example 38, 6-Benzyl-8-methyl-5,7-dioxo-6,7-dihydro-5H-thiazolo[3,2-c]pyrimidine-2-carboxylic acid(imidazo[2,1-b]thiazol-6-ylmethyl)-amide] displayed a 50% inhibitory concentration (IC50) of 25 µM.
Compound `Cc1cccc(CNC(=O)c2cn3c(=O)n(Cc4ccccc4)c(=O)c(C)c3s2)n1` [Example 41, 6-Benzyl-8-methyl-5,7-dioxo-6,7-dihydro-5H-thiazolo[3,2-c]pyrimidine-2-carboxylic acid(6-methyl-pyridin-2-ylmethyl)-amide] yielded an IC50 of 6.2 µM.
As for `Cc1c(=O)n(Cc2ccccc2)c(=O)n2cc(C(=O)NCc3cnn(C)c3)sc12` [Example 39, 6-Benzyl-8-methyl-5,7-dioxo-6,7-dihydro-5H-thiazolo[3,2-c]pyrimidine-2-carboxylic acid(1-methyl-1H-pyrazol-4-ylmethyl)-amide], the IC50 is 2.3 µM.

The same experiment, now with this note: IC50 inhibition of MMP-13CD, running text after Table 1.
In the case of `COc1cc(CNC(=O)c2cn3c(=O)n(Cc4ccc(F)c(F)c4)c(=O)c(C)c3s2)ccn1` [Example 114, 6-(3,4-Fluoro-benzyl)-8-methyl-5,7-dioxo-6,7-dihydro-5H-thiazolo[3,2-c]pyrimidine-2-carboxylic acid(2-methoxy-pyridin-4-ylmethyl)-amide hydrochloride], the IC50 came out at 0.0155 µM.

The experiment is the same for the next values; noted with them: running text after Table 1; read-out: IC50 inhibition of MMP-13CD.
Regarding `COC(=O)Nc1cc(Cn2c(=O)c(C)c3sc(C(=O)NCc4ccc(F)cc4)cn3c2=O)on1` [Example 111, {5-[2-(4-Fluoro-benzylcarbamoyl)-8-methyl-5,7-dioxo-7H-thiazolo[3,2-c]pyrimidine-6-ylmethyl]-isoxazol-3-yl}-carbamic acid methyl ester], the IC50 turned out to be 0.17 µM.

The same experiment, now with this note: thiopeptolide substrate, HEPES pH 7.0, 22° C.
`COC(=O)c1cn2c(=O)n(Cc3ccccc3)c(=O)c(C)c2s1` [Example 33a, 6-Benzyl-8-methyl-5,7-dioxo-6,7-dihydro-5H-thiazolo[3,2-c]pyrimidine-2-carboxylic acid methyl ester]: the “IC50 (μM) Versus Certain MMPs: MMP-13 CD” value was “none”.

The experiment is the same for the next values; noted with them: thiopeptolide substrate, HEPES pH 7.0, 22° C.; read-out: IC50 (μM) Versus Certain MMPs: MMP-13 CD.
With `Cc1c(=O)n(CCNC(=O)c2ccccc2)c(=O)n2cc(C(=O)NCc3ccc(F)cc3)sc12` [Example 100, 6-(2-Benzoylamino-ethyl)-8-methyl-5,7-dioxo-6,7-dihydro-5H-thiazolo[3,2-c]pyrimidine-2-carboxylic acid 4-fluoro-benzylamide], the concentration for half-maximal inhibition (IC50) was 10 µM.
`Cc1c(=O)n(Cc2nn[nH]n2)c(=O)n2cc(C(=O)NCc3ccc(F)cc3)sc12` [Example 66, 8-Methyl-5,7-dioxo-6-(2H-tetrazol-5-ylmethyl)-6,7-dihydro-5H-thiazolo[3,2-c]pyrimidine-2-carboxylic acid 4-fluoro-benzylamide]: the IC50 worked out at 14 µM.
Turning to `Cc1c(=O)n(CCCCCC#N)c(=O)n2cc(C(=O)NCc3ccc(F)cc3)sc12` [Example 89, 6-(5-Cyano-pentyl)-8-methyl-5,7-dioxo-6,7-dihydro-5H-thiazolo[3,2-c]pyrimidine-2-carboxylic acid 4-fluoro-benzylamide], the IC50 was 1.08 µM.
Consider `C#CCNC(=O)c1cn2c(=O)n(Cc3ccccc3)c(=O)c(C)c2s1` [Example 40, 6-Benzyl-8-methyl-5,7-dioxo-6,7-dihydro-5H-thiazolo[3,2-c]pyrimidine-2-carboxylic acid prop-2-ynylamide], for which the IC50 was greater than 100 µM.
For the compound `Cc1c(=O)n(Cc2ccc(S(=O)(=O)N3CCOCC3)cc2)c(=O)n2ccsc12` [Example 108, 8-Methyl-6-[4-(morpholine-4-sulfonyl)-benzyl]-thiazolo[3,2-c]pyrimidine-5,7-dione], the IC50 is greater than 100 µM.
Consider `Cc1c(=O)n(Cc2ccccc2)c(=O)n2cc(C(=O)NCc3cscn3)sc12` [Example 35, 6-Benzyl-8-methyl-5,7-dioxo-6,7-dihydro-5H-thiazolo[3,2-c]pyrimidine-2-carboxylic acid(thiazol-4-ylmethyl)-amide hydrochloride], for which the IC50 was greater than 100 µM.
Take `Cc1c(=O)n(CCS(=O)(=O)c2ccccc2)c(=O)n2cc(C(=O)NCc3ccc(F)cc3)sc12` [Example 96, 6-(2-Benzenesulfonyl-ethyl)-8-methyl-5,7-dioxo-6,7-dihydro-5H-thiazolo[3,2-c]pyrimidine-2-carboxylic acid 4-fluoro-benzylamide]: the half-maximal inhibitory concentration (IC50) was found to be 1.2 µM.
As to `Cc1c(=O)n(CCC(=O)c2ccccc2)c(=O)n2cc(C(=O)NCc3ccc(F)cc3)sc12` [Example 86, 8-Methyl-5,7-dioxo-6-(3-oxo-3-phenyl-propyl)-6,7-dihydro-5H-thiazolo[3,2-c]pyrimidine-2-carboxylic acid 4-fluoro-benzylamide], the IC50 amounted to 0.35 µM.
Regarding `Cc1c(=O)n(Cc2ccccc2)c(=O)n2cc(C(=O)NCc3ccc(Cl)cc3Cl)sc12` [Example 27, 6-Benzyl-8-methyl-5,7-dioxo-6,7-dihydro-5H-thiazolo[3,2-c]pyrimidine-2-carboxylic acid 2,4-dichloro-benzylamide], the half-maximal inhibitory concentration (IC50) was greater than 30 µM.
Regarding `Cc1c(=O)n(Cc2ccccc2)c(=O)n2cc(C(=O)NCC3CCNCC3)sc12` [Example 45, 6-Benzyl-8-methyl-5,7-dioxo-6,7-dihydro-5H-thiazolo[3,2-c]pyrimidine-2-carboxylic acid(piperidin-4-ylmethyl)-amide hydrochloride], the IC50 was greater than 100 µM.
Take `Cc1c(=O)n(C(C)c2ccccc2)c(=O)n2cc(C(=O)NCc3ccc(F)cc3)sc12` (stereo not drawn) [Example 87, 8-Methyl-5,7-dioxo-6-(1-phenyl-ethyl)-6,7-dihydro-5H-thiazolo[3,2-c]pyrimidine-2-carboxylic acid 4-fluoro-benzylamide]: the half-maximal inhibitory concentration (IC50) was 2.1 µM.
Take `COC(=O)c1sc2cc(=O)n(Cc3ccccc3)c(=O)n2c1C` [Example 26, 6-Benzyl-3-methyl-5,7-dioxo-6,7-dihydro-5H-thiazolo[3,2-c]pyrimidine-2-carboxylic acid methyl ester]: the IC50 was greater than 100 µM.
Regarding `Cc1c(=O)n(CCS(=O)(=O)c2ccc(Cl)cc2)c(=O)n2cc(C(=O)NCc3ccncc3)sc12` [Example 83, 6-[2-(4-Chloro-benzenesulfonyl)-ethyl]-8-methyl-5,7-dioxo-6,7-dihydro-5H-thiazolo[3,2-c]pyrimidine-2-carboxylic acid(pyridin-4-ylmethyl)-amide hydrochloride], the half-maximal inhibitory concentration (IC50) turned out to be 2.6 µM.
With `Cc1c(=O)n(Cc2ccccc2)c(=O)n2cc(C(=O)NCC3CCCO3)sc12` (stereo not drawn) [Example 110, 6-Benzyl-8-methyl-5,7-dioxo-6,7-dihydro-5H-thiazolo[3,2-c]pyrimidine-2-carboxylic acid(tetrahydro-furan-2-ylmethyl)-amide], the 50% inhibitory concentration (IC50) was 54 µM.
Take `Cc1c(=O)n(Cc2ccccc2)c(=O)n2cc(C(=O)O)sc12` [Example 33, 6-Benzyl-8-methyl-5,7-dioxo-6,7-dihydro-5H-thiazolo[3,2-c]pyrimidine-2-carboxylic acid]: the half-inhibitory concentration (IC50) is greater than 100 µM.
For `O=C(c1ccccc1)n1c(=O)cc2sccn2c1=O` [6-Benzoyl-thiazolo[3,2-c]pyrimidine-5,7-dione], the IC50 is greater than 100 µM.
On to `O=c1cc2sc(C(O)c3ccccc3)cn2c(=O)n1Cc1ccccc1` (stereo not drawn) [Example 7, 6-Benzyl-2-(hydroxy-phenyl-methyl)-thiazolo[3,2-c]pyrimidine-5,7-dione], for which the IC50 was found to be 32 µM.
As to `Cc1c(=O)n(Cc2ccccc2)c(=O)n2cc(C(=S)NCc3ccccc3)sc12` [Example 24, 6-Benzyl-8-methyl-5,7-dioxo-6,7-dihydro-5H-thiazolo[3,2-c]pyrimidine-2-carbothioic acid benzylamide], the half-maximal inhibitory concentration (IC50) is greater than 30 µM.
Regarding `CCC(CC)n1c(=O)c(C)c2sc(C(=O)NCc3ccc(F)cc3)cn2c1=O` [Example 94, 6-(1-Ethyl-propyl)-8-methyl-5,7-dioxo-6,7-dihydro-5H-thiazolo[3,2-c]pyrimidine-2-carboxylic acid 4-fluoro-benzylamide], the IC50 was greater than 30 µM.
`Cc1c(=O)n(Cc2ccccc2)c(=O)n2cc(C(O)C#Cc3ccccc3)sc12` (stereo not drawn) [Example 31, 6-Benzyl-2-(1-hydroxy-3-phenyl-prop-2-ynyl)-8-methyl-thiazolo[3,2-c]pyrimidine-5,7-dione]: the half-inhibitory concentration (IC50) is greater than 30 µM.
